Tests used:
[1] = test system: LAPC4 prostate cancer cells, which express the AKT1 E17K allele; assay: Antiproliferative effects in LAPC4 cells (CellTiter Glo, 72 h); type: cell-based; settings: Homo sapiens, LAPC4, 72 h, read-out: LAPC4 proliferation IC50: GeoMean IC50
How it was run: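 Cells grown in IMDM with 12% FBS, seeded at 1,000 cells/well and treated with compound dilutions in DMSO for 72 h. Intracellular ATP read by luminescence. IC50 from a log(inhibitor) vs. response Hill fit.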

AKT1 E17K = target: T1, AKT1 E17K (Homo sapiens, UniProt P31749, E17K); assay: Live cell target engagement by NanoBRET competitive probe displacement, AKT1 E17K; type: binding; settings: transfected HEK293 cells, 2 h at 37° C., read-out: AKT1 E17K IC50: GeoMean IC50
T1 construct: expressed in transfected cells; host or cells: HEK293

AKT1 WT = target: T2, AKT1 WT (Homo sapiens, UniProt P31749); assay: Live cell target engagement by NanoBRET competitive probe displacement, AKT1 WT; type: binding; settings: transfected HEK293 cells, 2 h at 37° C., read-out: AKT1 WT IC50: GeoMean IC50
T2 construct: expressed in transfected cells; host or cells: HEK293

AKT2 = target: T3, AKT2 (Homo sapiens, UniProt P31751); assay: Live cell target engagement by NanoBRET competitive probe displacement, AKT2; type: binding; settings: transfected HEK293 cells, 2 h at 37° C., read-out: AKT2 IC50: GeoMean IC50
T3 construct: expressed in transfected cells; host or cells: HEK293
T3 sequence (P31751 whole entry): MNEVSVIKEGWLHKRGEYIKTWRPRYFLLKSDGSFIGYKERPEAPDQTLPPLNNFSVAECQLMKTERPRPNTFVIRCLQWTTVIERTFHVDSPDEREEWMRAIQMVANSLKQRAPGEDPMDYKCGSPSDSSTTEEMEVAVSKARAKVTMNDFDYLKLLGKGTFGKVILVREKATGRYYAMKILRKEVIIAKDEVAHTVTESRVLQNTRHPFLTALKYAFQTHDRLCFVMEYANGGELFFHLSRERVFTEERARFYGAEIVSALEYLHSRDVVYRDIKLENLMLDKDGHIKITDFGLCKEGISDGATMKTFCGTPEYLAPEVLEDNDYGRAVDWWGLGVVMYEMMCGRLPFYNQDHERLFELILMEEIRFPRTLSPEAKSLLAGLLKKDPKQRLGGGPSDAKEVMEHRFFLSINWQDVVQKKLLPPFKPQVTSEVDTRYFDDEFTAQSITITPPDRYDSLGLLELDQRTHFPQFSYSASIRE

T2 sequence (P31749 whole entry): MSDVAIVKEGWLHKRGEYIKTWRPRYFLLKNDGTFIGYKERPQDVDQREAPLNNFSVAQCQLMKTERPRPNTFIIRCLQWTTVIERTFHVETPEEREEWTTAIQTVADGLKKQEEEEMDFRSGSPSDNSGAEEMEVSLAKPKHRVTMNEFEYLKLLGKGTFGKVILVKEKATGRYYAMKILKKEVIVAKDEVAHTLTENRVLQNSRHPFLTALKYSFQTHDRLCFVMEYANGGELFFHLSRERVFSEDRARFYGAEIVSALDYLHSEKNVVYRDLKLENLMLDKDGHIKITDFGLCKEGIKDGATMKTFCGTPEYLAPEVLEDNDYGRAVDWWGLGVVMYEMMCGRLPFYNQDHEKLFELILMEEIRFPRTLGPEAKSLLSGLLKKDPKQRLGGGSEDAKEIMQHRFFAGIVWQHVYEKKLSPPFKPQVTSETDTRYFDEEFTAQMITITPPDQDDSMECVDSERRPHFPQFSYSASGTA
T1 sequence (P31749 whole entry E17K): as the sequence (P31749 whole entry) above, with E17K counted along it

IC50 [1] | IC50 (AKT1 E17K) | IC50 (AKT1 WT) | IC50 (AKT2) | Compound
10 to 100 nM | 10 to 100 nM | 10 to 100 nM | 100 to 2000 nM | CN(C)c1ccn(-c2ccc3nc(-c4cccnc4N)n(-c4ccc5c(c4)CC[C@@H]5NC(=O)c4ccc(O)c(C=O)c4)c3n2)n1 [Example 114, (S)—N-(5-(2-(2-aminopyridin-3-yl)-5-(3-(dimethylamino)-1H-pyrazol-1-yl)-3H-imidazo[4,5-b]pyridin-3-yl)-2,3-dihydro-1H-inden-1-yl)-3-formyl-4-hydroxybenzamide]
100 to 2000 nM | 10 to 100 nM | 100 to 2000 nM | 100 to 2000 nM | [N-]=[N+]=Nc1cc(O)c(C=O)cc1C(=O)N[C@H]1CCc2cc(-n3c(-c4cccnc4N)nc4ccc(-n5cccn5)nc43)ccc21 [Example 235, N-[(1S)-5-[2-(2-aminopyridin-3-yl)-5-(pyrazol-1-yl)imidazo[4,5-b]pyridin-3-yl]-2,3-dihydro-1H-inden-1-yl]-2-azido-5-formyl-4-hydroxybenzamide]
10 to 100 nM | 10 to 100 nM | 10 to 100 nM | 100 to 2000 nM | Nc1ncccc1-c1nc2ccc(-c3cc4n(n3)CCOC4)nc2n1-c1ccc2c(c1)CC[C@@H]2NC(=O)c1cc(C=O)c(O)cc1F [Example 246, N-[(1S)-5-[2-(2-aminopyridin-3-yl)-5-{4H,6H,7H-pyrazolo[3,2-c][1,4]oxazin-2-yl}imidazo[4,5-b]pyridin-3-yl]-2,3-dihydro-1H-inden-1-yl]-2-fluoro-5-formyl-4-hydroxybenzamide]
100 to 2000 nM | 10 to 100 nM | 100 to 2000 nM | 100 to 2000 nM | Cc1cc2nc(-c3cccnc3N)n(-c3ccc4c(c3)CC[C@@H]4NC(=O)c3ccc(O)c(C=O)c3)c2nc1-n1cccn1 [Example 229, (S)—N-(5-(2-(2-aminopyridin-3-yl)-6-methyl-5-(1H-pyrazol-1-yl)-3H-imidazo[4,5-b]pyridin-3-yl)-2,3-dihydro-1H-inden-1-yl)-3-formyl-4-hydroxybenzamide]
100 to 2000 nM | 10 to 100 nM | 10 to 100 nM | 100 to 2000 nM | COc1cc(C(=O)N[C@H]2CCc3cc(-n4c(-c5cccnc5N)nc5ccc(-c6ccccc6)nc54)ccc32)cc(C=O)c1O [Example 36, N-[(1S)-5-[2-(2-aminopyridin-3-yl)-5-phenylimidazo[4,5-b]pyridin-3-yl]-2,3-dihydro-1H-inden-1-yl]-3-formyl-4-hydroxy-5-methoxybenzamide]
100 to 2000 nM | < 10 nM | 10 to 100 nM | 100 to 2000 nM | CC(=O)Nc1ccc(C(=O)N[C@H]2CCc3cc(-n4c(-c5cccnc5N)nc5ccc(N6CCOCC6)nc54)ccc32)cc1C=O [Example 53, N-[(1S)-5-[2-(2-aminopyridin-3-yl)-5-(morpholin-4-yl)imidazo[4,5-b]pyridin-3-yl]-2,3-dihydro-1H-inden-1-yl]-4-acetamido-3-formylbenzamide]
< 10 nM | < 10 nM | < 10 nM | 10 to 100 nM | CN(C)c1nc2cc(C(=O)N[C@H]3CCc4cc(-n5c(-c6cccnc6N)nc6ccc(-n7cccn7)nc65)ccc43)cc(C=O)c2[nH]1 [Example 175, (S)—N-(5-(2-(2-aminopyridin-3-yl)-5-(1H-pyrazol-1-yl)-3H-imidazo[4,5-b]pyridin-3-yl)-2,3-dihydro-1H-inden-1-yl)-2-(dimethylamino)-7-formyl-1H-benzo[d]imidazole-5-carboxamide]
100 to 2000 nM | 10 to 100 nM | 100 to 2000 nM | ≥ 2000 nM | Nc1ncccc1-c1nc2ccc(NC3CC3)nc2n1-c1ccc2c(c1)CC[C@@H]2NC(=O)c1ccc(O)c(C=O)c1 [Example 87, (S)—N-(5-(2-(2-aminopyridin-3-yl)-5-(cyclopropylamino)-3H-imidazo[4,5-b]pyridin-3-yl)-2,3-dihydro-1H-inden-1-yl)-3-formyl-4-hydroxybenzamide]
10 to 100 nM | 10 to 100 nM | 10 to 100 nM | 100 to 2000 nM | Cc1cc(-n2nccn2)nc2c1nc(-c1cccnc1N)n2-c1ccc2c(c1)CC[C@@H]2NC(=O)c1ccc(O)c(C=O)c1 [Example 234, N-[(1S)-5-[2-(2-aminopyridin-3-yl)-7-methyl-5-(1,2,3-triazol-2-yl)imidazo[4,5-b]pyridin-3-yl]-2,3-dihydro-1H-inden-1-yl]-3-formyl-4-hydroxybenzamide]
10 to 100 nM | < 10 nM | 10 to 100 nM | 100 to 2000 nM | C#Cc1ccn(-c2ccc3nc(-c4cccnc4N)n(-c4ccc5c(c4)CC[C@@H]5NC(=O)c4ccc(O)c(C=O)c4)c3n2)n1 [Example 119, N-[(1S)-5-[2-(2-aminopyridin-3-yl)-5-(3-ethynylpyrazol-1-yl)imidazo[4,5-b]pyridin-3-yl]-2,3-dihydro-1H-inden-1-yl]-3-formyl-4-hydroxybenzamide]
10 to 100 nM | 10 to 100 nM | 10 to 100 nM | 100 to 2000 nM | Nc1ncccc1-c1nc2ccc(-c3ccn(C4CC4)n3)nc2n1-c1ccc2c(c1)CC[C@@H]2NC(=O)c1cc(C=O)c(O)cc1F [Example 240, N-[(1S)-5-[2-(2-aminopyridin-3-yl)-5-(1-cyclopropylpyrazol-3-yl)imidazo[4,5-b]pyridin-3-yl]-2,3-dihydro-1H-inden-1-yl]-2-fluoro-5-formyl-4-hydroxybenzamide]
100 to 2000 nM | 10 to 100 nM | 100 to 2000 nM | 100 to 2000 nM | [2H]C(=O)c1cc(C(=O)N[C@H]2CCc3cc(-n4c(-c5cccnc5N)nc5ccc(-n6ccc(F)n6)nc54)ccc32)ccc1O [Example 190, (S)—N-(5-(2-(2-aminopyridin-3-yl)-5-(3-fluoro-1H-pyrazol-1-yl)-3H-imidazo[4,5-b]pyridin-3-yl)-2,3-dihydro-1-H-inden-1-yl)-3-(formyl-d)-4-hydroxybenzamide]
10 to 100 nM | < 10 nM | < 10 nM | 100 to 2000 nM | Cn1c(=O)[nH]c2c(C=O)cc(C(=O)N[C@H]3CCc4cc(-n5c(-c6cccnc6N)nc6ccc(-n7cccn7)nc65)ccc43)cc21 [Example 170, (S)—N-(5-(2-(2-aminopyridin-3-yl)-5-(1H-pyrazol-1-yl)-3H-imidazo[4,5-b]pyridin-3-yl)-2,3-dihydro-1H-inden-1-yl)-7-formyl-3-methyl-2-oxo-2,3-dihydro-1H-benzo[d]imidazole-5-carboxamide]
100 to 2000 nM | 10 to 100 nM | 10 to 100 nM | 100 to 2000 nM | Nc1ncccc1-c1nc2ccc(-n3cccn3)nc2n1-c1ccc2c(c1)CC[C@@H]2NC(=O)c1cc(C=O)c(O)c(F)c1Cl [Example 110, N-[(1S)-5-[2-(2-aminopyridin-3-yl)-5-(pyrazol-1-yl)imidazo[4,5-b]pyridin-3-yl]-2,3-dihydro-1H-inden-1-yl]-2-chloro-3-fluoro-5-formyl-4-hydroxybenzamide]
10 to 100 nM | 10 to 100 nM | 10 to 100 nM | 100 to 2000 nM | Nc1ncccc1-c1nc2ccc(-c3nccs3)nc2n1-c1ccc2c(c1)CC[C@@H]2NC(=O)c1ccc(O)c(C=O)c1 [Example 57, N-[(1S)-5-[2-(2-aminopyridin-3-yl)-5-(1,3-thiazol-2-yl)imidazo[4,5-b]pyridin-3-yl]-2,3-dihydro-1H-inden-1-yl]-3-formyl-4-hydroxybenzamide]

— patent publication US20260053834A1, “COVALENT MODIFIERS OF AKT1 AND USES THEREOF” (Terremoto Biosciences, Inc., priority 2023, published 2026)
